Experimental findings from publication PMC6748449, “HupA, the main undecaprenyl pyrophosphate and phosphatidylglycerol phosphate phosphatase in Helicobacter pylori is essential for colonization of the stomach” (PLoS Pathogens, 2019) are described below.

For assay [1], the target named is T1, LpxF (HP1580) (Helicobacter pylori, UniProt O26100).
T1 construct: gene HP_1580
The assay is described as follows: phosphate release, malachite green. In kind it is biochemical. The conditions noted are these: 50 uM substrate, 0.2% DDM, pH 7.4, 37 °C; very low activity.

The target of assay [2] is LpxE (HP0021) (Helicobacter pylori, UniProt O24866). Put plainly: phosphate release, malachite green. The conditions noted are these: 50 uM substrate, 0.2% DDM, pH 7.4, 37 °C. In kind it is biochemical.

Each structure is given as a SMILES string.

LpxE (HP0021), sequence (O24866 whole entry): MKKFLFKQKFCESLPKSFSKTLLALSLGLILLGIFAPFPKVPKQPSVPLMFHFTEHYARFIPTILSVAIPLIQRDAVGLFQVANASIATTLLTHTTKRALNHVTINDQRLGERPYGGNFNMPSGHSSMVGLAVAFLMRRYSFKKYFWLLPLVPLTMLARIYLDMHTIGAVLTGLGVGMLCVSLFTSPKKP
T1 sequence (O26100 entry or part of it): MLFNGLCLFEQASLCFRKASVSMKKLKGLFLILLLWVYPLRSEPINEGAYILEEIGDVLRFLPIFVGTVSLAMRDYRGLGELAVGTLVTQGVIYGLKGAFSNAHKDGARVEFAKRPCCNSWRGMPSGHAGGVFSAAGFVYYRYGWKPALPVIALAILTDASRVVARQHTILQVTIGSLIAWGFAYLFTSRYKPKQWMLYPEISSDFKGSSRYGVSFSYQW

Take `CC(C)=CCC/C(C)=C/CC/C(C)=C/COP(=O)(O)OP(=O)(O)O` [C15-PP]: the “phosphate release, malachite green” value was “LpxF only showed very low activity towards C15-PP and PGP” in assay [1]; “LpxE had similar substrate specificity as HupA, except for C5-PP” in assay [2].
